Data set [1] has as its system PGE2 release in U937 cells. As to the kind of experiment: PGE2 release from PMA-treated U937 cells (radioimmunoassay). The settings on record: 24 hour incubation; for activity at 1 µM: Homo sapiens, U-937, 24 h, read-out: Effects on PGE2 release in U937 cells at 1 μM as a % of PMA control, mean. Type of data set: cell-based, human. As for the experimental part: The U937 monocytic cell line (available from the ATCC, USA) is commonly used to evaluate anti-inflammatory agents. In the present experiment, U937 cells maintained in culture in a medium comprising RPMI containing (5% FCS v/v; supplemented with 100 U/ml penicillin, and […] streptomycin) were treated with phorbol myristate acetate (10 nM) then immediately dispersed into a 24 well cell culture plate at a concentration of 2×10^5 cells per ml in a volume of 1 ml per well. After 24 hours by which time the cells had adhered to the plastic substrate, they were treated with one of several analogues or with the vehicle of 0.1% DMSO. After a further 24 hour incubation period the supernatant was harvested and the content of prostaglandin E2 was measured by a radioimmunoassay, as described by Vlahos, R., & Stewart, A. G. (1999). (“Interleukin-1α and Tumour necrosis factor-α inhibit airway smooth muscle DNA synthesis by a glucocorticoid-sensitive induction of cyclo-oxygenase-2. British Journal of Pharmacology, 126, 1315-1324). […] The data in the table are presented as percentage of the control level of Prostaglandin E2.
Several analogues were evaluated for their actions on the release of PGE2 from the human U937macrophage cell line. Cells were stimulated by exposure to PMA 1 nM and after a period allowed for adherence of cells to the plastic culture dish, the cell were treated with one of several CP analogues. […] The chemical structures of CP1-56 and CP1-58 are as follows: […]

Data set [2] concerns the target proteins in rat lung membranes. In words: Competitive binding assay with [3H]-CP2117 on rat lung membranes (RLM). The settings on record: given as Log IC50 (negative values); displacement of 10 nM [3H]-CP2117, overnight at 4° C.; ND- not detected.
Data set [3] has as its system PGE2 release in J774 macrophages. As to the kind of experiment: PGE2 release from LPS/IFNγ-stimulated J774 macrophages (radioimmunoassay). Type of data set: cell-based, murine. The settings on record: Mus musculus, J774, 24 h, 30 min pre-treatment, 24 hour incubation; for activity at 1 µM: read-out: Effects on PGE2 release in J774 macrophages at 1 μM as a % of LPS/IFNγ control, mean; for activity at 10 µM: l0 μM, read-out: Effects on PGE2 release in J774 macrophages at l0 μM as a % of LPS/IFNγ control, mean.

Data set [4] relates to LPS-induced pulmonary inflammation in mice. As to the kind of experiment: Model of pulmonary inflammation induced by intra-nasal delivery of LPS. The format is in vivo. The settings on record: CP933 150 mg/kg ip, dexamethasone 1 mg/kg ip, 2 hours after intranasal LPS.
Protocol: The effect of the compounds of the present invention on BAL cell number, total BAL protein and inflammatory gene expression may be analysed. As an example, female Balb/c mice (17-21 g) may be given a single intraperitoneal (i.p.) injection of vehicle or CP92 (150, 50, 15 and 5 mg/kg in peanut oil DMSO). Two hours after the mice would be anaesthetised with methoxyflurane and a droplet of LPS (1 μg in saline) or sterile saline would be applied to the nose. As the animals breathe through their nose, the LPS or saline would be inhaled and gain access to the lung tissue. Twenty four hours post-LPS administration, mice would be euthanized with a mixture of 200 μl ketamine and 10 μl xylazine i.p., tracheotomised and bronchoalveolar lavage (BAL) performed for the assessment of cell number, cell type and protein content. The lungs would be removed and weighed as an indicator of any adverse effects of the drug treatment. Total RNA would be isolated from the lung tissues for analysis of gene expression (mRNA) using RT-PCR.
For data set [5], the system named is human airway smooth muscle (HASM) cells. As to the kind of experiment: Proliferation of human airway smooth muscle cells in response to thrombin (cell counting). The format is cell-based. The settings on record: given as Log IC50 (negative values), thrombin 0.3 U/ml, 48 h, compound pre-incubated 30 minutes. From the text: 3. Effects of Compounds on the Proliferation of Cells in Response to the Proliferative Stimulus of Either Thrombin (Human Airway Smooth Muscle) or Basic Fibroblast Growth Factor (bFGF)(Human Lung Parenchymal Fibroblasts, pFb)
The effects of compounds of the present invention on the proliferation of cells in response to the proliferative stimulus of either thrombin (human airway smooth muscle) or basic fibroblast growth factor (bFGF)(human lung parenchymal fibroblasts, pFb) were investigated. Cells were seeded onto 6-well plates at a density of 1.5×10^4 cells cm^2, made quiescent by removal of serum-containing media for 24 hours and then stimulated for 48 h with either thrombin (0.3 U/ml) or bFGF (300 pM). The test compounds were pre-incubated with HASM or pFb cells for 30 minutes before the addition of thrombin. At the end of the 48 hour incubation period, cells were detached from the culture plate by trypsin (0.5% w/v in PBS containing 1 mM EDTA), incubated for 5 minutes at ambient temperature in PBS containing 0.5% (w/v) trypan blue, washed twice (2% FCS in PBS), isolated by centrifugation (12,000×g, 5 min) and resuspended in 200 μl 2% FCS in PBS for counting in a haemocytometer chamber.
Human airway smooth muscle (HASM) cells were cultured from macroscopically normal bronchi (0.5-2 cm diameter) obtained from lung resection or heart-lung transplant specimens provided by the Alfred Hospital (Melbourne) according to methods published in detail previously (Fernandes et al., 1999).
Approximately 0.1 g of smooth muscle was stripped from the wall of the bronchus for each cell culture. Dissected tissue was immersed in Dulbecco's modified Eagle's medium (DMEM) (Flow Laboratories, Scotland), supplemented with 100 U/mL penicillin G (CSL, Australia) and 100 μg/mL streptomycin (CSL, Australia). The tissue was rinsed in phosphate buffered saline (PBS; Oxoid, England) and the airway smooth muscle was chopped into 2 mm^3 pieces and digested for 2 hours in DMEM containing elastase (0.5 mg/mL: Worthington Biochemical, USA) followed by a 12 hour incubation in DMEM containing collagenase (1 mg/mL) (Worthington Biochemical, USA), at 37° C. with agitation.
The resulting cell suspension was centrifuged and washed three times in phosphate buffered saline (PBS). Following the last centrifugation step, the cells were resuspended in 25 mL of DMEM supplemented with L-glutamine (2 mM: Sigma, USA), penicillin G (100 U/mL), streptomycin (100 μg/mL), amphotericin B (2 μg/mL: Wellcome, UK) and heat-inactivated FCS (10% v/v: CSL, Australia) and seeded into 25 cm^2 culture flasks. The primary isolates were incubated for 7 to 14 days to reach confluence. […]

As for `C/C(=N\OCc1ccc2nonc2c1)c1ccccc1` [AA-1-53], the activity at 1 µM in data set [1] turned out to be 91%.

As to `COc1cc(/C(C)=N/OCc2ccc3nonc3c2)ccc1O` [AA-1-56], in data set [2], the “Log IC50 RLM binding” value is on record as −6.21. Further, in data set [1], the activity at 1 µM is 16%.

As to `COc1ccc(/C(C)=N/OCc2ccc3nonc3c2)cc1O` [CP933, 1-(3-hydroxy-4-methoxyphenyl)ethanone-O-[(benzo[c][1,2,5]oxadiazol-5-yl)methyl]oxime], the “Log IC50 RLM binding” value in data set [2] was −6.185. Also, in data set [3], the activity at 1 µM came out at 109% and the activity at 10 µM came out at 87%. For the same molecule, the “Airspace (pulmonary) neutrophilia” value in data set [4] (FIG. 1A) is “attenuated the airspace neutrophilia”. In addition, in data set [4] (FIG. 1B), the “Protein in the broncho-alveolar lavage (BAL) fluid” value is “reduced accumulation of protein”.

For `Brc1cc2c(cc1/C=N/OCc1ccccc1)OCO2` [Compound 10-OK-07a], in data set [2], the “Log IC50 RLM binding” value is reported as −4.76. Further, the activity at 1 µM in data set [1] came to 114%.

Take `C/C(=N\OCc1ccc2nonc2c1)c1ccc2c(c1)OCO2` [AA-1-55]: in data set [1], the activity at 1 µM turned out to be 90%.

`CCC(=NOCc1ccc([N+](=O)[O-])cc1)c1cc(O)c(OC)cc1I` [CP30222, 5′-Hydroxy-2′-iodo-4′-methoxypropiophenone O-4-Nitrobenzyl Oxime] had an IC50 in data set [5] of 0.00832 µM.

For the molecule `COc1ccc(/C(C)=N/OCc2ccc3nonc3c2)cc1OC` [AA-1-58], in data set [2], the “Log IC50 RLM binding” value is listed as −4.74. Also, in data set [1], the activity at 1 µM was 111%.

Take `COc1ccc(/C(C)=N/OCc2ccc3nonc3c2)cc1` [AA-1-54]: the activity at 1 µM in data set [1] amounted to 76%.

Regarding `COc1ccc(C(C)=NOCc2ccc3nonc3c2)cc1OS(N)(=O)=O` [AA-1-81], the “Log IC50 RLM binding” value in data set [2] is given as −5.25. Moreover, the activity at 1 µM in data set [1] was 43%.

Regarding `COc1cc([C@H]2CC[C@](C)(CO)CC2)c(C(C)=NOCc2ccc([N+](=O)[O-])cc2)cc1O` [CP30450B, 2′-(4-hydroxymethyl-4-methyl)cyclohexyl-5′-hydroxy-4′-methoxyacetophenone O-4-Nitrobenzyl Oxime], in data set [2], the “Log IC50 RLM binding” value is −5.85. In addition, the “Effects on PGE2 release in U937 cells at 1 μM as a % of PMA control, mean” value in data set [1] is reported as 77 % of PMA control.

For the molecule `COc1cc([C@H]2CC[C@](C)(CO)CC2)c(C(C)=NOCc2ccc3nonc3c2)cc1O` [CP30452, 2′-(4-Hydroxymethyl-4-methyl)cyclohexyl-5′-hydroxy-4′-methoxyacetophenone O-(benzofurazan-5-yl)methyl Oxime], the “Log IC50 RLM binding” value in data set [2] was −5.54. For the same molecule, the activity at 1 µM in data set [1] was determined as 89%.

Turning to `CCC(=NOCc1ccc([N+](=O)[O-])cc1)c1ccc(OC)c(O)c1` [CP30221, 3′-Hydroxy-4′-methoxypropiophenone O-4-Nitrobenzyl Oxime], in data set [5], half-maximal inhibition (IC50) required 2.88 µM.

As for `COc1cc2c(cc1O)/C(=N/OCc1ccc([N+](=O)[O-])cc1)C(C)(C)CC2` [AA-1-39-2], the “Log IC50 RLM binding” value in data set [2] is on record as −6.19. In data set [1], the activity at 1 µM stood at 100%.

Regarding `COc1cc(/C(C)=N/OCc2ccc3nonc3c2)ccc1OS(N)(=O)=O` [AA-1-78], the “Log IC50 RLM binding” value in data set [2] was −4.87. Also, the activity at 1 µM in data set [1] stood at 19%.

As for `COc1ccc(/C(C)=N/OCc2ccc3nonc3c2)cc1O` [AA-1-80], in data set [2], the “Log IC50 RLM binding” value was −6.33. The activity at 1 µM in data set [1] turned out to be 38%.

Molecule `COc1cc(-c2ccc(NC(=O)OC(C)(C)C)cc2)c(/C(C)=N/OCc2ccc([N+](=O)[O-])cc2)cc1O` [CP30342, (E)-2′-(4-tert-Butoxycarbonylaminophenyl)-5′-hydroxy-4′-methoxyacetophenone O-4-Nitrobenzyl Oxime] yielded a melting point of 91 to 96.8 °C. In addition, the “Log IC50 RLM binding” value in data set [2] is given as −6.79. For the same molecule, in data set [3], the activity at 1 µM turned out to be 19% and the activity at 10 µM turned out to be 0%.

Regarding `COc1cc([C@H]2CC[C@](C)(CO)CC2)c(C(C)=NOCc2ccc([N+](=O)[O-])cc2)cc1O` [CP30450A, 2′-(4-hydroxymethyl-4-methyl)cyclohexyl-5′-hydroxy-4′-methoxyacetophenone O-4-Nitrobenzyl Oxime], the “Log IC50 RLM binding” value in data set [2] is on record as −5.81. Moreover, in data set [1], the activity at 1 µM came to 80%.

With `COc1cc([C@H]2CC[C@@](C)(CO)CC2)c(C(C)=NOCc2ccc([N+](=O)[O-])cc2)cc1O` [CP30451, 2′-(4-hydroxymethyl-4-methyl)cyclohexyl-5′-hydroxy-4′-methoxyacetophenone O-4-Nitrobenzyl Oxime], in data set [2], the “Log IC50 RLM binding” value is given as −5.73. For the same molecule, the activity at 1 µM in data set [1] was 67%.

Turning to `COc1ccc(/C(C)=N/OCc2cc(F)cc(F)c2)cc1O` [CP30274, (E)-3′-Hydroxy-4′-methoxyacetophenone O-3,5-Difluorobenzyl Oxime], the melting point is 47.7 to 50.2 °C. Moreover, in data set [2], the “Log IC50 RLM binding” value is recorded as −6.86.

`COc1cc(-c2ccc(C(F)(F)F)cc2)c(/C(C)=N/OCc2ccc([N+](=O)[O-])cc2)cc1O` [CP30346, (E)-2′-(4-Trifluoromethylphenyl)-5′-hydroxy-4′-methoxyacetophenone O-4-Nitrobenzyl Oxime]: the melting point was in the range of 111.5 to 114.1 °C. For the same molecule, in data set [2], the “Log IC50 RLM binding” value is −5.99. In addition, in data set [3], the activity at 1 µM is 78% and the activity at 10 µM came out at 34%.

For `COc1cc2c(cc1OS(N)(=O)=O)C(=NOCc1ccc([N+](=O)[O-])cc1)C(C)(C)CC2` [AA-1-79], the “Log IC50 RLM binding” value in data set [2] was −4.58. The activity at 1 µM in data set [1] was found to be 113%.

In turn, `COc1cc(-c2ccc(C)cc2)c(/C(C)=N/OCc2ccc([N+](=O)[O-])cc2)cc1O` [CP30345, (E)-5′-Hydroxy-4′-methoxy-2′-(4-methylphenyl)acetophenone O-4-Nitrobenzyl Oxime] gave a melting point of 105.9 to 108.7 °C. In addition, the “Log IC50 RLM binding” value in data set [2] is given as −6.33. Besides, in data set [3], the activity at 1 µM was 76% and the activity at 10 µM worked out at 1%.

Molecule `COc1ccc(/C(C)=N/OCc2ccc([N+](=O)[O-])cc2)cc1` [CP30253, (E)-4′-Methoxyacetophenone O-4-Nitrobenzyl Oxime] had a melting point of 88.2 to 89.5 °C. In data set [3], the activity at 1 µM is 47% and the activity at 10 µM is 4%.

For `COc1cc(I)c(C(C)=NOCc2ccc([N+](=O)[O-])cc2)cc1O` [CP30220-minor (Z-), 5′-Hydroxy-2′-iodo-4′-methoxyacetophenone O-4-Nitrobenzyl Oxime], the IC50 in data set [5] is 0.0389 µM.

The values are drawn from patent publication US8536157B2, “Non-steroidal compounds” (The University of Melbourne, priority 2007, dated 2013).
